Test [1] relates to eosinophil. The experiment in a line: Eosinophilia-Inhibitory Activity (Sephadex G-200 induced, bronchovesicular washing). The format is in vivo. To be noted: Rattus norvegicus, ip, 168 h, rats, 30 mg/kg intraperitoneally 10 minutes prior to each Sephadex administration (day 0, 2, 5), eosinophils at 7th day. Here is the method:
Rats weighing 250°-350 g were used (5 per group). The test method was a partial modification of the method reported by B. A. Spicer et al (Br. J. Pharmacol (1990), 101, 821). Sephadex G-200 having a particle size of 40°-120 micron was suspended in isotonic saline at 0.5 mg/ml and boiled for 5 hours on the administration day to allow swelling. The suspension was administered to the rats from the tail vein by 1 ml at day 0, day 2 and day 5. At the 7th day from the initiation of the administration, the rats were anesthetized with 25% urethane (5 ml/kg) and fixed at a dorsal position. A cut down tube was inserted into trachea and applied with a three-way cock at its end. A 5 ml plastic syringe was set on one end of the three-way cock, a 5 ml plastic syringe containing 6 units/ml heparin-PBS (37° C.) was set on the other end and the liquid was injected. Using the empty 5 ml plastic syringe, the liquid was inserted or sucked out three times. This set of operations were repeated three times and the liquid obtained was preserved on ice as a bronchovesicular washing (ca 12 ml). The obtained washing was centrifuged [1000 rpm (150 g)×5 min, 4° C.] and the supernatant thereof was removed by decantation. The residue was re-suspended in 500 μl of RPMI-1640 medium. The total leukocytes in the suspension was counted by Colter counter (Sysmex, MICROCELLCOUNTER CC-120). Hinkelmann's Solution (900 μl), which is an eosinophil count reagent, was added to 100 μl of the re-suspension for staining (1:9), and the proportion of eosinophil count relative to the leukocyte count in one microscopic field was determined using an optical microscope (NIKON, BIOPHOT Type 104). The drug (test compound) was intraperitoneally administered in a dose of 30 mg/kg 10 minutes prior to the respective administration of Sephadex. The control group was administered with an isotonic saline containing 1% Tween 80 and 1% dimethyl sulfoxide instead of the drug.
Eosinophilia-inhibitory activity was calculated from the following formula.

Test [2] concerns T lymphocytes. Nature of the test: Inhibitory action on T lymphocyte activation stimulated by concanavalin A ([3H]thymidine uptake). To be noted: mouse thymus T lymphocytes, 3 μg/ml concanavalin A, test drug 10 μM, read-out: growth-inhibitory activity, minus percentage figures relative to the control group (thymidine uptake). The format is cell-based. Here is the method:
Inhibitory action on T lymphocyte activation stimulated by concanavalin A
The test was performed according to the method of Mishell, B. B. et al ["Cell Proliferation" in Selected Methods in Cellular Immunology, V, XXiX, W. H. Freeman Co., San Francisco, Calif. pp. 153-160, 1980].
T lymphocytes were isolated from mouse thymus by a conventional method and suspended in DMEM. The cells (5×10^6 cells/ml) were incubated at 37° C. for 12 hours in the presence of 3 μg/ml of concanavalin A. The test drug was added at 10 μM under these incubation conditions. After 12 hours of incubation, 2 μCi [3H]thymidine was added to each well and the well was incubated for 48 hours. After the incubation, the thymidine uptake was determined by a scintillation counter. The growth-inhibitory activity is shown in minus percentage figures relative to the figure of the control group.

Molecules are shown by their SMILES.

In test [1], `CNC(=S)n1ncnc1N` [Compound A, 5-amino-1-[methylamino(thiocarbonyl)]-1H-1,2,4-triazole] yielded an inhibition in vivo at 30 mg/kg of 88%.

In turn, `CNC(=S)n1nc(N)nc1N` [Compound B, 3,5-diamino-1-[methylamino(thiocarbonyl)]-1H-1,2,4-triazole] showed an inhibition in vivo at 30 mg/kg in test [1] of 53%.

As to `CNC(=S)n1nc(-c2ccc(C#N)cc2)nc1N` [Compound C, 5-amino-3-(4-cyanophenyl)-1-[methylamino(thiocarbonyl)]-1H-1,2,4-triazole], the inhibition in vivo at 30 mg/kg in test [1] came to 87%.

With `CNC(=S)n1nc(-c2ccc(Cl)cc2)nc1N` [Compound D, 5-amino-3-(4-chlorophenyl)-1-[methylamino(thiocarbonyl)]-1H-1,2,4-triazole], the inhibition at 10 µM in test [2] was -52%. The compound further came in with an inhibition in vivo at 30 mg/kg in test [1] of 87%.

With `CNC(=S)n1nc(-c2ccc(OC)cc2)nc1N` [Compound E, 5-amino-3-(4-methoxyphenyl)-1-[methylamino(thiocarbonyl)]-1H-1,2,4-triazole], the inhibition in vivo at 30 mg/kg in test [1] was 70%.

Compound `Cn1cnc2ncnn2c1=S` [Compound F, 6-methyl-1,2,4-triazolo[1,5-a]-1,3,5-triazine-7(6H)-thione] yielded an inhibition in vivo at 30 mg/kg in test [1] of 58%.

In test [1], `Cn1cnc2nc(-c3ccc(C#N)cc3)nn2c1=S` [Compound G, 2-(4-cyanophenyl)-6-methyl-1,2,4-triazolo[1,5-a]-1,3,5-triazine-7(6H)-thione] had an inhibition in vivo at 30 mg/kg of 79%.

Turning to `Cn1cnc2nc(-c3ccc(Cl)cc3)nn2c1=S` [Compound H, 2-(4-chlorophenyl)-6-methyl-1,2,4-triazolo[1,5-a]-1,3,5-triazine-7(6H)-thione], in test [2], the inhibition at 10 µM was -60%. Besides, testing at 30 mg/kg in test [1] gave an inhibition in vivo of 83%.

With `CNC(=S)n1nc(-c2cccc(Cl)c2)nc1N` [Compound I, 5-amino-3-(3-chlorophenyl)-1-[methylamino(thiocarbonyl)]-1H-1,2,4-triazole], in test [1], at 30 mg/kg the inhibition in vivo was 70%.

In the case of `CNC(=S)n1nc(-c2ccc(F)cc2)nc1N` [Compound J, 5-amino-3-(4-fluorophenyl)-1-[methylamino(thiocarbonyl)]-1H-1,2,4-triazole], the inhibition in vivo at 30 mg/kg in test [1] was 80%.

Take `CNC(=S)n1nc(-c2ccc(Br)cc2)nc1N` [Compound K, 5-amino-3-(4-bromophenyl)-1-[methylamino(thiocarbonyl)]-1H-1,2,4-triazole]: the inhibition at 10 µM in test [2] was -35%. This compound also displayed an inhibition in vivo at 30 mg/kg in test [1] of 90%.

In the case of `CNC(=S)n1nc(-c2ccc(C(F)(F)F)cc2)nc1N` [Compound L, 5-amino-1-[methylamino(thiocarbonyl)]-3-(4-trifluoromethylphenyl)-1H-1,2,4-triazole], in test [2], the inhibition at 10 µM was -37%. The compound further registered an inhibition in vivo at 30 mg/kg in test [1] of 88%.

Compound `CNC(=S)n1nc(-c2ccc(-c3ccccc3)cc2)nc1N` [Compound M, 5-amino-3-(4-phenylphenyl)-1-[methylamino(thiocarbonyl)]-1H-1,2,4-triazole] yielded an inhibition in vivo at 30 mg/kg in test [1] of 85%.

Take `CNC(=S)n1nc(-c2ccc(Cl)cc2Cl)nc1N` [Compound N, 5-amino-3-(2,4-dichlorophenyl)-1-[methylamino(thiocarbonyl)]-1H-1,2,4-triazole]: in test [1], the inhibition in vivo at 30 mg/kg is 90%.

In test [1], `CNC(=S)n1nc(-c2ccc(Cl)c(Cl)c2)nc1N` [Compound O, 5-amino-3-(3,4-dichlorophenyl)-1-[methylamino(thiocarbonyl)]-1H-1,2,4-triazole] displayed an inhibition in vivo at 30 mg/kg of 88%.

As to `CNC(=S)n1nc(-c2ccc(Cl)cc2OC)nc1N` [Compound P, 5-amino-3-(4-chloro-2-methoxyphenyl)-1-[methylamino(thiocarbonyl)]-1H-1,2,4-triazole], 30 mg/kg produced 85% inhibition in vivo in test [1].

In test [1], `Cn1cnc2nc(-c3ccc(F)cc3)nn2c1=S` [Compound Q, 2-(4-fluorophenyl)-6-methyl-1,2,4-triazolo[1,5-a]-1,3,5-triazine-7(6H)-thione] displayed an inhibition in vivo at 30 mg/kg of 82%.

As for `Cn1cnc2nc(-c3ccc(Br)cc3)nn2c1=S` [Compound R, 2-(4-bromophenyl)-6-methyl-1,2,4-triazolo[1,5-a]-1,3,5-triazine-7(6H)-thione], in test [2], the inhibition at 10 µM was -58%. Further, in test [1], at 30 mg/kg the inhibition in vivo was 88%.

In the case of `Cn1cnc2nc(-c3ccc(C(F)(F)F)cc3)nn2c1=S` [Compound S, 6-methyl-2-(4-trifluoromethylphenyl)-1,2,4-triazolo[1,5-a]-1,3,5-triazine-7(6H)-thione], in test [2], the inhibition at 10 µM is -36%. Also, 30 mg/kg produced 89% inhibition in vivo in test [1].

As to `Cn1cnc2nc(-c3ccc(-c4ccccc4)cc3)nn2c1=S` [Compound T, 6-methyl-2-(4-phenylphenyl)-1,2,4-triazolo[1,5-a]-1,3,5-triazine-7(6H)-thione], the inhibition in vivo at 30 mg/kg in test [1] was 80%.

For `Cn1cnc2nc(-c3ccc(Cl)cc3Cl)nn2c1=S` [Compound U, 2-(2,4-dichlorophenyl)-6-methyl-1,2,4-triazolo[1,5-a]-1,3,5-triazine-7(6H)-thione], in test [2], the inhibition at 10 µM was -22%. Moreover, testing at 30 mg/kg in test [1] gave an inhibition in vivo of 85%.

Turning to `Cn1cnc2nc(-c3ccc(Cl)c(Cl)c3)nn2c1=S` [Compound V, 2-(3,4-dichlorophenyl)-6-methyl-1,2,4-triazolo[1,5-a]-1,3,5-triazine-7(6H)-thione], the inhibition at 10 µM in test [2] is -40%. Moreover, in test [1], the inhibition in vivo at 30 mg/kg worked out at 87%.

The term inhibition in vivo denotes the drop in the measured response relative to a control, in per cent. High values mean a strong effect, low ones a weak effect.

The values above are taken from patent US5750545A, “Triazole derivative and pharmaceutical use thereof” (The Green Cross Corporation, priority 1993, dated 1998).
